The record followed here is patent publication US20220249596A1, “PIC1 PEPTIDE COMPOSITIONS AND METHODS OF USE THEREOF FOR TREATMENT OF HYPOXIC ISCHEMIC ENCEPHALOPATHY” (REALTA HOLDINGS, LLC, priority 2019, published 2022).

No end group written: not given here.

Type in all cases: in vivo, rat
Assay [1] is described as follows: Novel object recognition test. To be noted: 8 weeks after HIE, versus HT and NT animals, P<0.05. On the procedure: The novel object recognition test was performed at 8 weeks after HIE to test cognitive function by evaluating the differences in the exploration time of novel and familiar objects. The novel object recognition task tests for short-term, intermediate and long-term memory without the need for external motivation, reward, or punishment. Results on the test are influenced by both hippocampal and cortical injury. The test is based on the concept that when animals are exposed to a familiar and a novel object, they spend more time exploring the novel object. It is thought that the recognition of novelty requires more cognitive skills from the subject.
Rats were trained for two days prior to novel object testing. During the training sessions, the rat was allowed to explore the testing chamber, a polycarbonate box (40×40 cm) with two identical objects for three minutes. On testing day, one of the familiar objects was replaced with a novel object, made with the same material but a different shape, and allowed to explore for three minutes. Video recordings of the interactions were reviewed by blinded investigators. Object exploration was defined as the rat directing its nose toward the object at a distance of less than 2 cm. The DINOR was calculated as ((time with novel object−time with familiar object))/(total time spent with objects).

The subject of assay [2] is C9. Briefly: Immunofluorescence quantification of C9 in brain. Conditions: ipsilateral cortex and hippocampus, 48 hours, versus NT, P<0.05. As for the experimental part: TUNEL/C1q staining was performed as follows. Five (5) μm paraffin-embedded coronal brain sections on slides were incubated (1 hour; 60° C.), deparaffinized with xylene, and rehydrated with ethanol (100%, 95%, 70%; RT). Endogenous peroxidase activity was blocked (0.3% H2O2/MeOH; 10 minutes; RT), and heat induced antigen retrieval was performed (when indicated) using 10 mM sodium citrate, pH 6.0. 10% normal serum (from the same species as the host of the secondary antibody) was used to block and to dilute antibodies. Samples were washed twice for 10 min each, in PBST between each step.
After blocking for one hour at room temperature, tissues were incubated with 1:300 goat anti-Iba1 (Abcam), 1:250 goat anti-GFAP (Abcam), 1:500 chicken anti-NeuN (Millipore, Billerica, Mass.), or 1:100 mouse anti-NeuN (Millipore) in host appropriate blocking serum overnight at 4° C. Primary antibodies were probed with 1:500 donkey anti-goat (Abcam), goat anti-chicken (Abcam), or goat anti-mouse (Abcam) AF 488 or 568 in appropriate blocking serum for one hour at room temperature. Tissues were blocked a second time with NGS for one hour at room temperature. […]

A short description of assay [3]: Beam balance test (tapered/ledged beam). Conditions: six weeks after surgery. As for the experimental part: No other preparation was needed. The thawed tubes were kept on ice until dosing.
Six weeks after surgery, the sensory motor functions of forelimbs and hindlimbs were tested using tapered/ledged beam (Zhao et al., Behav. Brain Res. 156 (2005), 85-94). The shape of the beam was square. The rats were pre-trained for 3 days to traverse the beam. The beam-walking apparatus consists of a horizontal 160 cm tapered (square) beam with underhanging ledges on each side to permit foot faults without falling. The end of the beam was connected to a black box (20.5 cm×25 cm×25 cm) with a platform at the starting point. A bright light was placed above the start point to motivate the rats to traverse the beam. The rats' performance was videotaped and were analyzed by calculating the slip ratio of the impaired (contralateral to lesion) forelimb and hindlimb (number of slips/number of total steps). Steps onto the ledge were scored as a full slip and a half slip was given if the limb touched the side of the beam. Also, the walking/running time on the beam were measured. The mean of three trials were used for statistical analyses. Analysis was carried out by an observer blind to the experimental groups.

On to “IALILEPICCQERAA-dPEG24 (cysteine pairing not given here) [PIC1]”, for which the “novel object recognition: proportion of time exploring the novel object” value in assay [1] is “significantly higher proportion of time”. Also, the C9 expression entry in assay [2] is “decreased expression”. Besides, in assay [3] (between study groups), the “beam balance: hind paw slips” value was “No differences”. Moreover, the “beam balance: front paw slips” value in assay [3] (pooled genders and males, versus H/I+normo, p<0.05) is listed as “fewer front paw slips”.
